{"source": "paper PMC7449217", "about": "“The FDA-Approved Drug Nelfinavir Inhibits Lytic Cell-Free but Not Cell-Associated Nonlytic Transmission of Human Adenovirus” (Antimicrobial Agents and Chemotherapy, 2020)", "key": {"L3/p23 cysteine protease": {"target": "T1, L3/p23 cysteine protease (Human adenovirus C serotype 5, UniProt P03253)", "T1 construct": "Double-CsCl-purified HAdV particles grown in the presence or absence of nelfinavir; endogenous in cells", "T1 sequence (P03253 whole entry)": "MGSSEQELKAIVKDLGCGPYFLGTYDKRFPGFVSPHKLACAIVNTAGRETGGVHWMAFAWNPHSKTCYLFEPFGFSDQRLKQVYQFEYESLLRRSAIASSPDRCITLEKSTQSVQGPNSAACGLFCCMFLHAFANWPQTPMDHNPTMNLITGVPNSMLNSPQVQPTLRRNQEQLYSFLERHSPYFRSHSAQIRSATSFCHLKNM", "test": "Western blot analysis of HAdV protease activity (pVI/VI, pVII/VII in purified HAdV-C5)", "format": "cell-based", "conditions": "purified HAdV-C5 grown in the presence of nelfinavir", "description": "HAdV-C5 was amplified in medium containing 0, 1.25, or 3 μM nelfinavir for 4 days. Cells were harvested and disrupted by three freeze-thaw cycles. The cell debris was removed by freon extraction, and mature full HAdV virions were purified by two rounds of CsCl gradient ultracentrifugation ([162]). The protein concentration was determined by a bicinchoninic acid (BCA) assay (Pierce BCA protein assay kit; Thermo Fisher Scientific, Waltham, MA, USA). For long-term storage, virus stocks were supplemented with 10% (vol/vol) glycerol and kept at −80°C.\nDouble-CsCl-purified HAdV particles grown in the presence or absence of nelfinavir (HAdV-C5^±Nelfinavir stocks) and a size standard (PageRuler plus; Thermo Fisher Scientific, Waltham, MA, USA) were size separated on a 12% acrylamide gel under reducing conditions and transferred to a polyvinylidene difluoride (PVDF) membrane. HAdV proteins were detected using primary antibodies, 1:10,000 R72 rabbit antifiber ([181]), 1:1,000 rabbit anti-pVI/VI ([51]), and 1:1,000 R3 rabbit anti-pVII/VII (Ulf Pettersson, Uppsala University), and visualized using goat anti-rabbit-horseradish peroxidase (HRP) (catalog number 7074; Cell Signaling Technology, Danvers, MA, USA) and the ECL Prime Western blotting detection reagent (GE Healthcare, Pittsburgh, PA, USA). […]"}, "HAdV-B35-pIX-FS2A-GFP": {"system": "HAdV-B35-pIX-FS2A-GFP", "test": "fluorescence-based plaque-forming assay, HBEC", "format": "cell-based, human adenovirus", "description": "(§1) Per 96-well plate, 15,000 A549 cells, 10,000 HeLa cells, 30,000 HBECs, 30,000 HCE cells, or 30,000 CMT-93 cells were seeded in 100 μl of the respective supplemented medium and allowed to settle for 1 h at room temperature (RT) prior to cell culture incubation at 37°C with 5% CO2 and 95% humidity. The following day, the medium was replaced with 50 μl of the respective virus stock dilution giving rise to 5 to 50 plaques per 96-well plate. Fifty microliters of nelfinavir to obtain a 0.1 to 50 μM final concentration or the DMSO solvent control was also added, both in supplemented medium. For each experiment, a noninfected, treated control was performed. For uphill plaque assays, the medium volume was increased to 150 μl with identical virus and drug concentrations. For wash-in/washout experiments, the virus was incubated on cells in supplemented medium for 1 h at 37°C, cells were washed with PBS, and a 100-μl drug dilution in supplemented medium was added. All experiments were performed in four technical replicates or as indicated. Cells were incubated under standard cell culture conditions. At the indicated times postinfection, the cells were fixed, and the nuclei were stained for 1 h at RT by the addition of 33 μl 16% (wt/vol) paraformaldehyde (PFA) and 4 μg/ml Hoechst 33342 (Sigma-Aldrich, St. Louis, MO, USA) in PBS. Cells were washed three times with PBS and stored in PBS supplemented with 0.02% N3 for infections with viruses harboring a GFP transgene. For wild-type (wt) viruses, cells were quenched in PBS supplemented with 50 mM NH4Cl, permeabilized using 0.2% (vol/vol) Triton X-100 in PBS, and blocked with 0.5% (wt/vol) bovine serum albumin (BSA) in PBS. Cells were incubated with 381.7 ng/ml mouse anti-HAdV hexon protein antibody (Mab8052; Sigma-Aldrich, St. Louis, MO, USA) and subsequently stained using 2 μg/ml goat anti-mouse-Alexa Fluor 594 (catalog number A21203 or A32742; Thermo Fisher Scientific, Waltham, MA, USA). Plates were imaged on either an IXM-XL or an IXM-C automated high-throughput fluorescence microscope (Molecular Devices, San Jose, CA, USA) using a 4× objective in wide-field mode. Hoechst staining was recorded in the 4′,6-diamidino-2-phenylindole (DAPI) channel, the fluorescein isothiocyanate (FITC)/GFP channel was acquired for viral GFP, and the tetramethyl rhodamine isothiocyanate (TRITC)/Texas Red channel was acquired for hexon immunofluorescence staining.\n(§2) The infection phenotype for each well was quantified using Plaque2.0 ([101]). The number of plaques was determined based on the infection signal (viral GFP or hexon immunofluorescence staining). Nuclei stained with Hoechst were segmented by using CellProfiler ([178]). Infected nuclei were classified based on the median infection signal per nucleus in CellProfiler. Data were plotted, and the EC50 (infected and treated cells), the TC50 (noninfected, treated cells), as well as the corresponding standard errors (SE) were determined using curve fitting in GraphPad (version 8.1.2; GraphPad Software, Inc.) using three-parameter inhibitor concentration-versus-response nonlinear regression. The mean TI50 was calculated as the […] ratio of the means. The TI50 SE was calculated by error propagation."}, "HAdV-C2-dE3B-GFP-dADP": {"system": "HAdV-C2-dE3B-GFP-dADP", "test": "fluorescence-based plaque-forming assay, HBEC", "format": "cell-based, human adenovirus", "conditions": "for TI50 (TC50/IC50): HAdV-C2-dE3B-GFP-dADP in HBEC, 4 dpi, GFP", "description": "as §1, §2"}, "HAdV-C2-dE3B-GFP [1]": {"system": "HAdV-C2-dE3B-GFP", "test": "fluorescence-based plaque-forming assay, HBEC", "format": "cell-based, human adenovirus", "conditions": "for TI50 (TC50/IC50): HAdV-C2-dE3B-GFP in HBEC, 4 dpi, GFP", "description": "as §1, §2"}, "HAdV-B3-pIX-FS2A-GFP": {"system": "HAdV-B3-pIX-FS2A-GFP", "test": "fluorescence-based plaque-forming assay, HBEC", "format": "cell-based, human adenovirus", "description": "as §1, §2"}, "HAdV-C2-dE3B-GFP [2]": {"system": "HAdV-C2-dE3B-GFP", "test": "quantification of viral protein expression (CMV-GFP, hexon) in infected A549 cells", "format": "cell-based, human adenovirus", "conditions": "46 hpi, at the tested concentrations", "description": "Infection, HAdV hexon immunofluorescence staining, and imaging were performed in technical quadruplicates, as described above for the microscopic plaque assay. Single nuclei (Hoechst) were segmented using CellProfiler ([178]). Median GFP and hexon signals per nucleus were measured, and infected nuclei were classified using the median GFP or hexon signal per nucleus. Subsequently, the mean and standard deviation (SD) over all infected nuclei per well were calculated using R version 3.3.2 ([179]). Data were plotted using GraphPad (version 8.1.2; GraphPad Software, Inc.)."}, "HAdV-C2-dE3B-GFP [3]": {"system": "HAdV-C2-dE3B-GFP", "set-up": "method as in earlier work", "conditions": "A549, 1.25 μM compound, normalized to neg. ctr., cited from earlier work"}}, "note": "pEC50: −log10 of the molar value. Where a name gives a salt, the structure may show the parent alone. Read-outs that look alike come from different tables or passages of the source."}
{"smiles": "Cc1c(O)cccc1C(=O)N[C@@H](CSc1ccccc1)[C@H](O)CN1C[C@H]2CCCC[C@H]2C[C@H]1C(=O)NC(C)(C)C", "note": "[Nelfinavir, Nelfinavir mesylate]", "values": [{"measurement": "effect on proteolytic maturation of the virus by L3/p23 cysteine protease", "setting": "L3/p23 cysteine protease", "value": "did not affect"}, {"measurement": "TI50 (TC50/IC50)", "setting": "HAdV-B35-pIX-FS2A-GFP; HAdV-B35-pIX-FS2A-GFP in HBEC, 6 dpi, GFP", "value": 1.91}, {"measurement": "pEC50", "setting": "HAdV-B35-pIX-FS2A-GFP; Human adenovirus sp.", "value": 5.16}, {"measurement": "TI50 (TC50/IC50)", "setting": "HAdV-C2-dE3B-GFP-dADP", "value": 4.56}, {"measurement": "TI50 (TC50/IC50)", "setting": "HAdV-C2-dE3B-GFP-dADP; listed as nelfinavir", "value": 4.6}, {"measurement": "pEC50", "setting": "HAdV-C2-dE3B-GFP-dADP; Human adenovirus sp.", "value": 5.57}, {"measurement": "TI50 (TC50/IC50)", "setting": "HAdV-C2-dE3B-GFP [1]", "value": 55.18}, {"measurement": "TI50 (TC50/IC50)", "setting": "HAdV-C2-dE3B-GFP [1]; listed as nelfinavir", "value": 55.2}, {"measurement": "pEC50", "setting": "HAdV-C2-dE3B-GFP [1]; Human adenovirus sp.", "value": 6.28}, {"measurement": "TI50 (TC50/IC50)", "setting": "HAdV-B3-pIX-FS2A-GFP; HAdV-B3-pIX-FS2A-GFP in HBEC, 8 dpi, GFP", "value": 1.99}, {"measurement": "pEC50", "setting": "HAdV-B3-pIX-FS2A-GFP; Human adenovirus sp.", "value": 5.19}, {"measurement": "effect on GFP or hexon expression", "setting": "HAdV-C2-dE3B-GFP [2]", "value": "no effect"}, {"measurement": "Normalized mean read-outs: Infected nuclei", "setting": "HAdV-C2-dE3B-GFP [3]; analysis EPFL", "value": 0.20}, {"measurement": "Normalized mean read-outs: Infection index", "setting": "HAdV-C2-dE3B-GFP [3]; analysis EPFL", "value": 0.27}, {"measurement": "Normalized mean read-outs: Nuclei", "setting": "HAdV-C2-dE3B-GFP [3]; analysis EPFL", "value": 0.74}, {"measurement": "Normalized mean read-outs: Plaques", "setting": "HAdV-C2-dE3B-GFP [3]; analysis EPFL", "value": 0.00}, {"measurement": "Normalized mean read-outs: Virus intensity", "setting": "HAdV-C2-dE3B-GFP [3]; analysis EPFL", "value": 0.33, "unit": "AU"}, {"measurement": "Normalized mean read-outs: Infected nuclei", "setting": "HAdV-C2-dE3B-GFP [3]; analysis UZH", "value": 0.20}, {"measurement": "Normalized mean read-outs: Infection index", "setting": "HAdV-C2-dE3B-GFP [3]; analysis UZH", "value": 0.23}, {"measurement": "Normalized mean read-outs: Nuclei", "setting": "HAdV-C2-dE3B-GFP [3]; analysis UZH", "value": 0.85}, {"measurement": "Normalized mean read-outs: Plaques", "setting": "HAdV-C2-dE3B-GFP [3]; analysis UZH", "value": 0.0274}, {"measurement": "Normalized mean read-outs: Virus intensity", "setting": "HAdV-C2-dE3B-GFP [3]; analysis UZH", "value": 0.30, "unit": "AU"}]}
